System: HCT116
Assay: In vitro cytotoxicity measured by the cell colony formation assay
Type: cell-based
Settings: HCT116 cells, 72 h drug incubation, colonies counted after 7 days; ID50 = drug concentration producing 50% inhibition of colony formation; read-out: IN VITRO ID 50 (nm) HCT116
Protocol: In Vitro Cytotoxicity Measured by the Cell Colony Formation Assay
Four hundred cells (HCT116) were plated in 60 mm Petri dishes containing 2.7 mL of medium (modified McCoy's 5a medium containing 10% fetal bovine serum and 100 units/mL penicillin and 100 µg/mL streptomycin). The cells were incubated in a CO2 incubator at 37° C. for 5 h for attachment to the bottom of Petri dishes. The compounds identified in Example 2 were made up fresh in medium at ten times the final concentration, and then 0.3 mL of this stock solution was added to the 2.7 mL of medium in the dish. The cells were then incubated with drugs for 72 h at 37° C. At the end of incubation the drug-containing media were decanted, the dishes were rinsed with 4 mL of Hank's Balance Salt Solution (HBSS), 5 mL of fresh medium was added, and the dishes were returned to the incubator for colony formation. The cell colonies were counted using a colony counter after incubation for 7 days.

Structure (SMILES)	IC50 [nM]
CC(=O)OC12COC1CC(O)C1(C)C(=O)C(OC(=O)C(C)C)C3=C(C)C(OC(=O)C(O)C(C=C(C)C)NC(=O)OC(C)(C)C)CC(O)(C(OC(=O)c4ccccc4)C21)C3(C)C (stereo not shown) [Compound 2226]	< 1
CC(=O)OC12COC1CC(O)C1(C)C(=O)C(OC(=O)C(C)C)C3=C(C)C(OC(=O)C(O)C(NC(=O)OC(C)(C)C)c4ccccn4)CC(O)(C(OC(=O)c4ccccc4)C21)C3(C)C (stereo not shown) [Compound 2238]	< 1
CC(=O)O[C@@]12CO[C@@H]1C[C@H](O)[C@@]1(C)C(=O)[C@H](OC(=O)C(C)C)C3=C(C)[C@@H](OC(=O)[C@H](O)[C@@H](NC(=O)OC(C)(C)C)c4cccnc4)C[C@@](O)([C@@H](OC(=O)c4ccccc4)C12)C3(C)C (stereo partly shown) [Compound 2242]	< 10
CC(=O)O[C@@]12CO[C@@H]1C[C@H](O)[C@@]1(C)C(=O)[C@H](OC(=O)C(C)C)C3=C(C)[C@@H](OC(=O)[C@H](O)[C@@H](NC(=O)OC(C)(C)C)c4ccncc4)C[C@@](O)([C@@H](OC(=O)c4ccccc4)C12)C3(C)C (stereo partly shown) [Compound 2255]	< 1
CC(=O)O[C@@]12CO[C@@H]1C[C@H](O)[C@@]1(C)C(=O)[C@H](OC(=O)C(C)C)C3=C(C)[C@@H](OC(=O)[C@H](O)[C@@H](NC(=O)OC(C)(C)C)c4ccco4)C[C@@](O)([C@@H](OC(=O)c4ccccc4)C12)C3(C)C (stereo partly shown) [Compound 2269]	< 1
CC(=O)O[C@@]12CO[C@@H]1C[C@H](O)[C@@]1(C)C(=O)[C@H](OC(=O)C(C)C)C3=C(C)[C@@H](OC(=O)[C@H](O)[C@@H](NC(=O)OC(C)(C)C)c4ccoc4)C[C@@](O)([C@@H](OC(=O)c4ccccc4)C12)C3(C)C (stereo partly shown) [Compound 2273]	< 1
CC(=O)O[C@@]12CO[C@@H]1C[C@H](O)[C@@]1(C)C(=O)[C@H](OC(=O)C(C)C)C3=C(C)[C@@H](OC(=O)[C@H](O)[C@@H](NC(=O)OC(C)(C)C)c4cccs4)C[C@@](O)([C@@H](OC(=O)c4ccccc4)C12)C3(C)C (stereo partly shown) [Compound 2287]	< 1
CC(=O)O[C@@]12CO[C@@H]1C[C@H](O)[C@@]1(C)C(=O)[C@H](OC(=O)C(C)C)C3=C(C)[C@@H](OC(=O)[C@H](O)[C@@H](NC(=O)OC(C)(C)C)c4ccsc4)C[C@@](O)([C@@H](OC(=O)c4ccccc4)C12)C3(C)C (stereo partly shown) [Compound 2291]	< 1
CC(=O)O[C@@]12CO[C@@H]1C[C@H](O)[C@@]1(C)C(=O)[C@H](OC(=O)C(C)C)C3=C(C)[C@@H](OC(=O)[C@H](O)[C@@H](NC(=O)OC(C)(C)C)C(C)C)C[C@@](O)([C@@H](OC(=O)c4ccccc4)C12)C3(C)C (stereo partly shown) [Compound 2306]	< 10
CC(=O)O[C@@]12CO[C@@H]1C[C@H](O)[C@@]1(C)C(=O)[C@H](OC(=O)C(C)C)C3=C(C)[C@@H](OC(=O)[C@H](O)[C@@H](NC(=O)OC(C)(C)C)C4CCC4)C[C@@](O)([C@@H](OC(=O)c4ccccc4)C12)C3(C)C (stereo partly shown) [Compound 2319]	< 10
CC(=O)O[C@@]12CO[C@@H]1C[C@H](O)[C@@]1(C)C(=O)[C@H](OC(=O)C(C)C)C3=C(C)[C@@H](OC(=O)[C@H](O)[C@@H](NC(=O)OC(C)(C)C)c4ccc([N+](=O)[O-])cc4)C[C@@](O)([C@@H](OC(=O)c4ccccc4)C12)C3(C)C (stereo partly shown) [Compound 2320]	< 1
C/C=C/C(=O)O[C@H]1C(=O)[C@@]2(C)C([C@H](OC(=O)c3ccccc3)[C@]3(O)C[C@H](OC(=O)[C@H](O)[C@H](C=C(C)C)NC(=O)OC(C)(C)C)C(C)=C1C3(C)C)[C@]1(OC(C)=O)CO[C@@H]1C[C@@H]2O (stereo partly shown) [Compound 2332]	< 1
C/C=C/C(=O)O[C@H]1C(=O)[C@@]2(C)C([C@H](OC(=O)c3ccccc3)[C@]3(O)C[C@H](OC(=O)[C@H](O)[C@@H](NC(=O)OC(C)(C)C)c4ccccn4)C(C)=C1C3(C)C)[C@]1(OC(C)=O)CO[C@@H]1C[C@@H]2O (stereo partly shown) [Compound 2348]	< 1
C/C=C/C(=O)O[C@H]1C(=O)[C@@]2(C)C([C@H](OC(=O)c3ccccc3)[C@]3(O)C[C@H](OC(=O)[C@H](O)[C@@H](NC(=O)OC(C)(C)C)c4cccnc4)C(C)=C1C3(C)C)[C@]1(OC(C)=O)CO[C@@H]1C[C@@H]2O (stereo partly shown) [Compound 2353]	< 10
C/C=C/C(=O)O[C@H]1C(=O)[C@@]2(C)C([C@H](OC(=O)c3ccccc3)[C@]3(O)C[C@H](OC(=O)[C@H](O)[C@@H](NC(=O)OC(C)(C)C)c4ccncc4)C(C)=C1C3(C)C)[C@]1(OC(C)=O)CO[C@@H]1C[C@@H]2O (stereo partly shown) [Compound 2366]	< 1
C/C=C/C(=O)O[C@H]1C(=O)[C@@]2(C)C([C@H](OC(=O)c3ccccc3)[C@]3(O)C[C@H](OC(=O)[C@H](O)[C@@H](NC(=O)OC(C)(C)C)c4ccco4)C(C)=C1C3(C)C)[C@]1(OC(C)=O)CO[C@@H]1C[C@@H]2O (stereo partly shown) [Compound 2379]	< 1
C/C=C/C(=O)O[C@H]1C(=O)[C@@]2(C)C([C@H](OC(=O)c3ccccc3)[C@]3(O)C[C@H](OC(=O)[C@H](O)[C@@H](NC(=O)OC(C)(C)C)c4ccoc4)C(C)=C1C3(C)C)[C@]1(OC(C)=O)CO[C@@H]1C[C@@H]2O (stereo partly shown) [Compound 2380]	< 1
C/C=C/C(=O)O[C@H]1C(=O)[C@@]2(C)C([C@H](OC(=O)c3ccccc3)[C@]3(O)C[C@H](OC(=O)[C@H](O)[C@@H](NC(=O)OC(C)(C)C)c4cccs4)C(C)=C1C3(C)C)[C@]1(OC(C)=O)CO[C@@H]1C[C@@H]2O (stereo partly shown) [Compound 2392]	< 1
C/C=C/C(=O)O[C@H]1C(=O)[C@@]2(C)C([C@H](OC(=O)c3ccccc3)[C@]3(O)C[C@H](OC(=O)[C@H](O)[C@@H](NC(=O)OC(C)(C)C)c4ccsc4)C(C)=C1C3(C)C)[C@]1(OC(C)=O)CO[C@@H]1C[C@@H]2O (stereo partly shown) [Compound 2408]	< 1
C/C=C/C(=O)O[C@H]1C(=O)[C@@]2(C)C([C@H](OC(=O)c3ccccc3)[C@]3(O)C[C@H](OC(=O)[C@H](O)[C@@H](NC(=O)OC(C)(C)C)C(C)C)C(C)=C1C3(C)C)[C@]1(OC(C)=O)CO[C@@H]1C[C@@H]2O (stereo partly shown) [Compound 2413]	< 10
C/C=C/C(=O)O[C@H]1C(=O)[C@@]2(C)C([C@H](OC(=O)c3ccccc3)[C@]3(O)C[C@H](OC(=O)[C@H](O)[C@@H](NC(=O)OC(C)(C)C)C4CCC4)C(C)=C1C3(C)C)[C@]1(OC(C)=O)CO[C@@H]1C[C@@H]2O (stereo partly shown) [Compound 2424]	< 10
C/C=C/C(=O)O[C@H]1C(=O)[C@@]2(C)C([C@H](OC(=O)c3ccccc3)[C@]3(O)C[C@H](OC(=O)[C@H](O)[C@@H](NC(=O)OC(C)(C)C)c4ccc([N+](=O)[O-])cc4)C(C)=C1C3(C)C)[C@]1(OC(C)=O)CO[C@@H]1C[C@@H]2O (stereo partly shown) [Compound 2439]	< 10
C/C=C/C(=O)O[C@H]1C(=O)[C@@]2(C)C([C@H](OC(=O)c3ccccc3)[C@]3(O)C[C@H](OC(=O)[C@H](O)[C@@H](NC(=O)OC(C)(C)C)c4ccccc4)C(C)=C1C3(C)C)[C@]1(OC(C)=O)CO[C@@H]1C[C@@H]2O (stereo partly shown) [Compound 2442]	< 1
CC(=O)O[C@@]12CO[C@@H]1C[C@H](O)[C@@]1(C)C(=O)[C@H](OC(=O)C=C(C)C)C3=C(C)[C@@H](OC(=O)[C@H](O)[C@H](C=C(C)C)NC(=O)OC(C)(C)C)C[C@@](O)([C@@H](OC(=O)c4ccccc4)C12)C3(C)C (stereo partly shown) [Compound 2455]	< 10
CC(=O)O[C@@]12CO[C@@H]1C[C@H](O)[C@@]1(C)C(=O)[C@H](OC(=O)C=C(C)C)C3=C(C)[C@@H](OC(=O)[C@H](O)[C@@H](NC(=O)OC(C)(C)C)c4ccccn4)C[C@@](O)([C@@H](OC(=O)c4ccccc4)C12)C3(C)C (stereo partly shown) [Compound 2464]	< 1

From US7524869B2, “Taxanes having a C10 ester substituent” (Florida State University Research Foundation, Inc., priority 2000, dated 2009)
